In patent publication US9132108B2, “Pharmaceutical composition for ameliorating and/or preventing leptin resistance, and use thereof” (HIROSHIMA UNIVERSITY, priority 2009, dated 2015):

Tests used:
mice = assay: Open Field Test, amounts of mice activity (Example 6); assay type: in vivo, mouse; settings: Group 3 or 4 (flurbiprofen) vs Group 1 or 2 (no flurbiprofen); 10 mg/kg per day orally, 8 weeks
Protocol: In order to measure the amounts of mice activity, an Open Field Test was carried out. Specifically, 4 weeks-old male mice (C57BL/6 Cr Slc) were divided into four groups each consisting of 15-16 mice. Mice of individual groups were given diets as follows for 8 weeks similarly with Example 5. • Group 1: Normal diet (10 kcal % fat) only • Group 2: High-fat diet (60 kcal % fat) only • Group 3: Normal diet+flurbiprofen • Group 4: High-fat diet+flurbiprofen
Flurbiprofen (F8514, produced by SIGMA) was diluted with drinking water so that the administration amount of flurbiprofen would be 10 mg/kg per day, and was orally administered to the mice in the form of drinking water.
The mice raised for 8 weeks with high-fat diet or normal diet were subjected to the Open Field Test.
The Open Field Test is a test in which mice were put at the center of a square field (48×48 cm) and the amounts of activity of the mice in the new environment were measured in numerals. Specifically, with respect to each of the mice, the amount of activity per 5 minutes was measured using a locomotor activity measuring device (SCANET MV-10MT, produced by Toyo Sangyo Co., Ltd.). The measurements were performed between 16:30 and 17:30 which was a time before feeding behavior of the mice would become active. […]

[1] = test system: mice given high-fat diet for 6 months (leptin resistance); assay: Visceral fat of leptin-resistant mice, therapeutic effect (Example 8); assay type: in vivo, mouse; settings: 3 weeks after flurbiprofen administration, 3 mg/kg per day orally; vs control group; P<0.01
Excerpt: In Example 8, effectiveness of flurbiprofen in ameliorating leptin resistance was confirmed by measuring a change in body weight of mice as a reference index. Specifically, 4 weeks-old male mice (C57BL/6 Cr Slc) had been given high-fat diet for 6 months so that leptin resistance would be induced in the mice. Thereafter, the mice were divided into two groups (each consisting of 14 mice), and the mice of individual groups were given the following diets for 3 weeks. • Control group (Cont): normal diet (10 kcal % fat) only • Flurbiprofen-administered group (Ful): normal diet+flurbiprofen Flurbiprofen (F8514, produced by SIGMA) was diluted with drinking water so that the administration amount of flurbiprofen would be 3 mg/kg per day, and was orally administered to the mice in the form of drinking water. The rates of change in body weight of the mice of individual groups were measured with the date when administration of flurbiprofen started (0 week) as a reference. Further, the amount of visceral fat (g) was measured. The visceral fat was extracted from abdomens of the mice and wet weight thereof was measured. FIG. 14 is a graph showing the amount of visceral fat (g) of the mice of the control group and the mice of the flurbiprofen-administered group which had been given normal diet for 3 weeks. […]

plasma leptin levels = assay: Plasma leptin levels by ELISA before and after fasting (Example 3); assay type: in vivo, mouse; settings: Group 4 (high-fat diet+flurbiprofen) vs Group 2, approximately 10 mg/kg per day orally, 8 weeks
Protocol: 4 weeks-old male mice (C57BL/6 Cr Slc) had been given normal diet (10 kcal % fat, D12450B, produced by Research Diets, Inc.) or high-fat diet (60 kcal % fat, D12492, produced by Research Diets, Inc.). Flurbiprofen was diluted with drinking water so that the administration amount of flurbiprofen would be approximately 10 mg/kg per day, and was orally administered to the mice in the form of drinking water. Specifically, mice were divided into four groups each consisting of 7-8 mice. Mice of individual groups were given diets as follows. • Group 1: Normal diet (10 kcal % fat) only • Group 2: High-fat diet (60 kcal % fat) only • Group 3: Normal diet+flurbiprofen • Group 4: High-fat diet+flurbiprofen 20-25 μL of blood samples before or after fasting for 28-29.5 hours were obtained from mice via tail vein, which had been given high-fat diet or normal diet for 8 weeks. […] Plasma leptin levels in the supernatants obtained by the centrifugation were measured by ELISA. […] Values in the graph of (a) of FIG. 6 are averages of plasma leptin levels of mice of each group measured before fasting (± their standard deviations) (n=7-8 with respect to each group). Similarly, values in the graph of (b) of FIG. 6 are averages of plasma leptin levels of mice of each group measured after fasting (± their standard deviations) (n=7-8 with respect to each group). […]

[2] = test system: mice given high-fat diet for 6 months (leptin resistance); assay: Body weight of leptin-resistant mice (6 months high-fat diet), therapeutic effect (Example 8); assay type: in vivo, mouse; settings: 3 mg/kg per day orally
Excerpt: In Example 8, effectiveness of flurbiprofen in ameliorating leptin resistance was confirmed by measuring a change in body weight of mice as a reference index. Specifically, 4 weeks-old male mice (C57BL/6 Cr Slc) had been given high-fat diet for 6 months so that leptin resistance would be induced in the mice. Thereafter, the mice were divided into two groups (each consisting of 14 mice), and the mice of individual groups were given the following diets for 3 weeks. • Control group (Cont): normal diet (10 kcal % fat) only • Flurbiprofen-administered group (Ful): normal diet+flurbiprofen Flurbiprofen (F8514, produced by SIGMA) was diluted with drinking water so that the administration amount of flurbiprofen would be 3 mg/kg per day, and was orally administered to the mice in the form of drinking water. The rates of change in body weight of the mice of individual groups were measured with the date when administration of flurbiprofen started (0 week) as a reference. Further, the amount of visceral fat (g) was measured. The visceral fat was extracted from abdomens of the mice and wet weight thereof was measured. FIGS. 13 and 14 show the result. FIG. 13 is a graph showing the rates of change in body weight of the mice of the control group and the mice of the flurbiprofen-administered group. […]

[3] = marketed non-steroidal anti-inflammatory agent; cited from earlier work

C[C@@H](C(=O)O)c1ccc(-c2ccccc2)c(F)c1 [flurbiprofen]
amounts of activity (locomotor activity, counts/5 min) (mice): no significant difference in the amounts of activity
amount of visceral fat [1]: significantly decreased
plasma leptin levels (plasma leptin levels): significantly lower plasma leptin levels
time after administration at which the effect of ameliorating leptin resistance is observed ([2]; rate of change in body weight vs control group): 1 week
average body weight ([2]; 3 weeks after the administration of flurbiprofen, normal diet after 6 months high-fat diet, before administration 53.479±0.7804 g, control 48.371±0.6387 g, P<0.05): 45.543 ± 1.1103 g
dependence and development of resistance [3]: no dependence on flurbiprofen or no development of resistance to flurbiprofen is observed
